Data: patent US6861443B2, “Positive modulators of nicotinic receptors” (Astra AB, priority 1998, dated 2005)
Like-named read-outs stand apart in the source and are kept apart here.

Key:
nAChR α7 = nAChR α7 (Homo sapiens, UniProt P36544); conditions: FIG. 6
Protocol: To screen for α7 modulatory activity, the 96 well plate is placed in a fluorescence imaging plate reader (FLIPR) and test compounds along with an α7 agonist are applied simultaneously to all wells. Receptor activation is measured by calcium influx into cells which is quantified by the increase in fluorescence intensity of each well, recorded simultaneously by the FLIPR. A modulatory effect is determined by the increase in fluorescence over that of agonist alone. Similarly, to test for nAChR α7 agonist activity, test compounds along with an α7 modulator are applied simultaneously to all wells. Receptor activation is measured by calcium influx into cells which is quantified by the increase in fluorescence intensity of each well, recorded simultaneously by the FLIPR. An agonist effect is determined by the increase in fluorescence over that of modulator alone.
Effect of nAChR α7 modulator on agonist activity was measured by Ca^2+ flux through nAChR α7 expressed in HEK-293 cells. The nicotinic agonist (−)-Spiro[1-Azabicyclo[2.2.2.]Octane-3,5*-Oxazolidine]-2*-One, was used.

α7-nicotinic receptor = experiment: Two-electrode voltage-clamp current recording from Xenopus oocytes expressing α7-nicotinic receptors; format: cell-based, human, rat and chick
Protocol: (a) Xenopus Oocyte Current Recording
The Xenopus oocyte has provided a powerful means of assessing the function of proteins thought to be subunits of ligand-gated ion-channels.
Consequently, one convenient technique to assess the enhancement of nicotinic efficacy is two-electrode voltage-clamp recording from Xenopus oocytes expressing α7-nicotinic receptors from cRNA.
Oocytes were removed to OR2 solution (82 mM NaCl, 2.5 mM KCl, 5 mM HEPES, 1.5 mM NaH2PO4, 1 mM MgCl2, 0.1 mM EDTA; pH 7.4). The oocytes were defolliculated by incubation in 25 ml OR2 containing 0.2% collagenase 1A (Sigma) two times for 60 min on a platform vibrating at 1 Hz and stored in Leibovitz's L-15 medium (50 μg/ml gentomycin, 10 Units/ml penicillin, and 10 μg/ml streptomycin). Approximately 50 ng of cRNA was injected in each oocyte the following day. cRNA was synthesised from cDNA using Message Machine (purchased from Abion).
The external recording solution consisted of 90 mM NaCl, 1 mM KCl, 1 mM MgCl2, 1 mM BaCl2, 5 mM HEPES; pH 7.4. […] Oocytes were impaled with two electrodes of 1-2 MΩ tip resistance when filled with 3M KCl. Recordings were begun when membrane potential became stable at potentials negative to −20 mV (resting membrane potentials are less negative when Ba^++ replaces Ca^++ in bathing solutions). Membrane potential was clamped at −80 mV.
Current amplitude was measured from baseline to peak. EC50 values, maximal effect, and Hill slopes were estimated by fitting the data to the logistic equation using GraphPad Prism (GraphPad Software, Inc., San Diego, Calif.).
Increases in agonist efficacy elicited by a positive modulator can be calculated in two ways: • (1) As percent potentiation of current amplitude which is defined as 100(Im−Ic)/Ic where Im is current amplitude in the presence of modulator and Ic is current in the absence of modulator (FIG. 1). • (2) As percent potentiation of “area under curve” of an agonist trace. Area under the curve is a common representation of the total ion flux through the channel (FIG. 2).

[1] = target: mouse muscle-type nicotinic receptors (Mus musculus, UniProt P02716+P04756+P09690); experiment: Efficacy enhancement on other nicotinic receptors; format: cell-based
Sequence of mouse muscle-type nicotinic receptors (P04756 21-457): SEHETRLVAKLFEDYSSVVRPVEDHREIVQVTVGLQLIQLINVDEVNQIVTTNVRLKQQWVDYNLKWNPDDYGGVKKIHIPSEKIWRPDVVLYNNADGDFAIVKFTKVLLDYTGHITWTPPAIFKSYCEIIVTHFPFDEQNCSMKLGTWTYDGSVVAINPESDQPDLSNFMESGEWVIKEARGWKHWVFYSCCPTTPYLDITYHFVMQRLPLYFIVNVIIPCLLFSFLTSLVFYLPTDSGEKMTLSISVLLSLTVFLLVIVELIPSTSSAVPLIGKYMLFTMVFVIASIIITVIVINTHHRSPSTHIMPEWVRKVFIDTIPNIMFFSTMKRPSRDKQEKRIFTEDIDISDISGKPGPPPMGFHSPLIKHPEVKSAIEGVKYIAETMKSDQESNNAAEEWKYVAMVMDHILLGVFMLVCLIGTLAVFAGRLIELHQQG
Sequence of mouse muscle-type nicotinic receptors (P09690 24-501): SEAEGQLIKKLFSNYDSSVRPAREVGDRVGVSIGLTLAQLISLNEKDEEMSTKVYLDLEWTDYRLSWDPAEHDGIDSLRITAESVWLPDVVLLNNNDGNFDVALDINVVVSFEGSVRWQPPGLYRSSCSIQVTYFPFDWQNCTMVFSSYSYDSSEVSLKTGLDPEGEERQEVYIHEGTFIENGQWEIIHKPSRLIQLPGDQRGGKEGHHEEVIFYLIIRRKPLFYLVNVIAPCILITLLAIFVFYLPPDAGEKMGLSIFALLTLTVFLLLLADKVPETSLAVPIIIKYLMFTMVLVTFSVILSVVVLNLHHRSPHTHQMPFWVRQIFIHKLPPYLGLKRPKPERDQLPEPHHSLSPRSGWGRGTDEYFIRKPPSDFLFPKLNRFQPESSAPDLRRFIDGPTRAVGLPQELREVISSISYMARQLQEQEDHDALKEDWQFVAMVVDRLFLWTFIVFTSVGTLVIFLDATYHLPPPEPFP
Sequence of mouse muscle-type nicotinic receptors (P02716 25-520): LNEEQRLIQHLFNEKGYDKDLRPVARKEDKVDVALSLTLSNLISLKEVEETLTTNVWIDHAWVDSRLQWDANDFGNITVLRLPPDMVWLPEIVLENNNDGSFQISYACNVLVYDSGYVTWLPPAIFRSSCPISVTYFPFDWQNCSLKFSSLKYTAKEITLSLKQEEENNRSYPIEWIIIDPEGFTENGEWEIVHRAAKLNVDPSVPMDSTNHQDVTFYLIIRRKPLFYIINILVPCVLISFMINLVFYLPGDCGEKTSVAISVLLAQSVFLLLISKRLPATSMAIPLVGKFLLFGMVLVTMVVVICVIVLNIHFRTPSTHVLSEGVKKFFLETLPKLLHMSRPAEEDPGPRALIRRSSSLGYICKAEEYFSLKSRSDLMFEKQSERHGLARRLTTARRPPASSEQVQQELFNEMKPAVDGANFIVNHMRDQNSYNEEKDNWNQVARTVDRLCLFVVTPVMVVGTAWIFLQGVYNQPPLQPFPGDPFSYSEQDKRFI

5-HT3 receptors = conditions: unpublished results / in press; cited from earlier work

Sequence of nAChR α7 (P36544 23-502): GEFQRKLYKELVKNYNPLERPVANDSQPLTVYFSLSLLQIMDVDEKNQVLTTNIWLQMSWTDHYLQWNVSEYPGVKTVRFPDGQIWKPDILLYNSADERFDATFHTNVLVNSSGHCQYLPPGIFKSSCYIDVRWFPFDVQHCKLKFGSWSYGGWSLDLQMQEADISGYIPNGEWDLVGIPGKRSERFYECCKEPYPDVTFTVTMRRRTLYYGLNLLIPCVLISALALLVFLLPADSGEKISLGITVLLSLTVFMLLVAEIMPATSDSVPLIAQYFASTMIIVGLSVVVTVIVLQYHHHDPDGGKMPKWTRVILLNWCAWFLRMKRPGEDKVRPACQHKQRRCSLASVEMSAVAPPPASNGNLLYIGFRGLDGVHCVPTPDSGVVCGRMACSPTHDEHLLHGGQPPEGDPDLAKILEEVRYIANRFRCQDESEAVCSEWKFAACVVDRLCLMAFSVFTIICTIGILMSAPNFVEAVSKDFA

For `O=C1NCC2(CN3CCC2CC3)O1` (single isomer, unassigned; (-)), the “agonist activity as Ca2+ flux signal, agonist alone” value (nAChR α7; no modulator) was “No discernible signal” and the “agonist activity as Ca2+ flux signal, agonist together with modulator” value (nAChR α7; with nAChR α7 modulator) was “significant increase in agonist activity”.
For `Oc1ccc2[nH]ccc2c1` [5-hydroxyindole], the “increase in area under the curve” value (α7-nicotinic receptor; 0.5 mM 5-OHi, saturating agonist (3 mM ACh), 1 second agonist application, FIG. 4) was roughly 400%, the “increase of maximal response to ACh (maximum amplitude)” value (α7-nicotinic receptor; 5-hydroxyindole 500 μM against a range of ACh concentrations, FIG. 3) was 2 fold and the “increase in efficacy of agonists at nicotinic receptors” value (α7-nicotinic receptor; general statement) was “greater than 2 fold”. For the same compound, the “increase in efficacy of various nicotinic agonists afforded by 5-hydroxyindole” value (α7-nicotinic receptor; modulator 1 mM 5-OHi, ACh 3 mM, AR-R 17779 100 μM, FIG. 5) was “seen with all nicotinic agonists tested”, the “current induced when applied by itself” value (α7-nicotinic receptor; no agonist, oocytes injected with cRNA for α7 nicotinic receptors) was “did not induce current” and the “increase in efficacy on other nicotinic receptors” value [1] was “not seen on any other nicotinic receptors”.
In the case of `NCC(=O)O` [Glycine], the “effect on 5-HT3 receptors” value (5-HT3 receptors) is listed as “no effect”.
For `NS(=O)(=O)c1cc2c(cc1Cl)NC(C1CC3C=CC1C3)NS2(=O)=O` (stereo not drawn) [cyclothiazide], the “effect on 5-HT3 receptors” value (5-HT3 receptors) is given as “block 5-HT3 receptors”.
For `NCCc1c[nH]c2ccc(O)cc12` [serotonin], the “positive modulation on ACh activity (efficacy enhancing activity)” value (α7-nicotinic receptor) was “did not increase efficacy” and the “positive modulation on ACh activity (efficacy enhancing activity)” value (α7-nicotinic receptor; listed as 5-HT) was “unable to reproduce the finding that 5-HT increases activity”.
